ChEMBL document CHEMBL1201862, “PubChem BioAssay data set” (2004)
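1) Cells in 96-well plates. 2) Compound, 48 h, 5 concentrations. 3) Linear interpolation between surrounding doses. 4) Unreached endpoint = highest concentration. GI50 is the concentration that inhibits growth by half.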 Active and inactive are the calls of the source. No stated cut-off is given here; in the data, active = GI50 up to about 1.1 µM and inactive = higher.

Key:
Experiment in all cases: NCI-60 cell line screen, 48 h
786-0 = system: 786-0
HCC 2998 = system: HCC 2998
LXFL 529 = system: LXFL 529
U-251 = system: U-251
A549 = system: A549
MOLT-4 = system: MOLT-4
OVCAR-4 = system: OVCAR-4
HOP-92 = system: HOP-92
CCRF-CEM = system: CCRF-CEM
DMS-273 = system: DMS-273
OVCAR-3 = system: OVCAR-3
UACC-62 = system: UACC-62
IGROV-1 = system: IGROV-1
HCT-116 = system: HCT-116
SF-295 = system: SF-295
TK-10 = system: TK-10
Malme-3M = system: Malme-3M
HCT-15 = system: HCT-15
SF-268 = system: SF-268
HOP-62 = system: HOP-62
DLD-1 = system: DLD-1
OVCAR-5 = system: OVCAR-5
NCI-H23 = system: NCI-H23
NCI-H460 = system: NCI-H460
RPMI-8226 = system: RPMI-8226
UACC-257 = system: UACC-257
NCI-H226 = system: NCI-H226
SNB-75 = system: SNB-75
HT-29 = system: HT-29
ACHN = system: ACHN
SNB-19 = system: SNB-19
SW-620 = system: SW-620
KM12 = system: KM12
SK-MEL-28 = system: SK-MEL-28
SK-MEL-2 = system: SK-MEL-2
UO-31 = system: UO-31
SF-539 = system: SF-539
SK-MEL-5 = system: SK-MEL-5
CAKI-1 = system: CAKI-1
OVCAR-8 = system: OVCAR-8
COLO 205 = system: COLO 205
KM-20L2 = system: KM-20L2
M14 = system: M14
K562 = system: K562
DMS-114 = system: DMS-114
NCI-H522 = system: NCI-H522
M19-MEL = system: M19-MEL
HL-60 = system: HL-60
SR = system: SR
PC-3 = system: PC-3
MDA-MB-231 = system: MDA-MB-231
MDA-N = system: MDA-N
T47D = system: T47D
BT-549 = system: BT-549
LOX IMVI = system: LOX IMVI
MCF7 = system: MCF7
SK-OV-3 = system: SK-OV-3
A498 = system: A498
SN12C = system: SN12C
MDA-MB-435 = system: MDA-MB-435
Hs-578T = system: Hs-578T
DU-145 = system: DU-145
NCI/ADR-RES = system: NCI/ADR-RES
RXF 393 = system: RXF 393
EKVX = system: EKVX

SMILES: O=C(c1ccccc1)c1c(CC(O)c2ccncc2)n(C(=O)c2ccccc2)c2ccccc12 (stereo not drawn)
- GI50 (786-0): 17 µM (inactive)
- GI50 (HCC 2998): 17.1 µM (inactive)
- GI50 (LXFL 529): 18.8 µM (inactive)
- GI50 (U-251): 17.7 µM (inactive)
- GI50 (A549): 17.8 µM (inactive)
- GI50 (MOLT-4): 18.2 µM (inactive)
- GI50 (OVCAR-4): 15.8 µM (inactive)
- GI50 (HOP-92): 15 µM (inactive)
- GI50 (CCRF-CEM): 25.1 µM (inactive)
- GI50 (DMS-273): 17.9 µM (inactive)
- GI50 (OVCAR-3): 14 µM (inactive)
- GI50 (UACC-62): 16.5 µM (inactive)
- GI50 (IGROV-1): 16.7 µM (inactive)
- GI50 (HCT-116): 15.6 µM (inactive)
- GI50 (SF-295): 12.1 µM (inactive)
- GI50 (TK-10): 28.6 µM (inactive)
- GI50 (Malme-3M): 18 µM (inactive)
- GI50 (HCT-15): 17.4 µM
- GI50 (SF-268): 20.7 µM (inactive)
- GI50 (HOP-62): 16.4 µM (inactive)
- GI50 (DLD-1): 26.2 µM (inactive)
- GI50 (OVCAR-5): 15.8 µM (inactive)
- GI50 (NCI-H23): 16 µM (inactive)
- GI50 (NCI-H460): 18.7 µM (inactive)
- GI50 (RPMI-8226): 19.6 µM (inactive)
- GI50 (UACC-257): 17.5 µM (inactive)
- GI50 (NCI-H226): 14.7 µM (inactive)
- GI50 (SNB-75): 7.83 µM (inactive)
- GI50 (HT-29): 17.3 µM (inactive)
- GI50 (ACHN): 20.2 µM (inactive)
- GI50 (SNB-19): 21.8 µM (inactive)
- GI50 (SW-620): 18.7 µM (inactive)
- GI50 (KM12): 19.2 µM (inactive)
- GI50 (SK-MEL-28): 17.7 µM (inactive)
- GI50 (SK-MEL-2): 16 µM (inactive)
- GI50 (UO-31): 14.6 µM (inactive)
- GI50 (SF-539): 17.9 µM (inactive)
- GI50 (SK-MEL-5): 16.1 µM (inactive)
- GI50 (CAKI-1): 22.3 µM (inactive)
- GI50 (OVCAR-8): 30 µM (inactive)
- GI50 (COLO 205): 17.9 µM (inactive)
- GI50 (KM-20L2): 17.7 µM (inactive)
- GI50 (M14): 16.9 µM (inactive)
- GI50 (K562): > 10 µM (inactive)
- GI50 (DMS-114): 16.9 µM (inactive)
- GI50 (NCI-H522): 13.2 µM (inactive)
- GI50 (M19-MEL): 17.9 µM (inactive)
- GI50 (HL-60): 18.2 µM (inactive)
- GI50 (SR): 16.6 µM (inactive)

SMILES: CC1OC(OC2C(OC(=O)[C@]34CCC(C)(C)C[C@H]3C3=CC[C@@H]5[C@@]6(C)CC[C@H](OC7OC(CO)C(O)C(O)C7OC7OC(CO)C(O)C(O)C7O)C(C)(C)[C@@H]6CC[C@@]5(C)[C@]3(C)CC4)OCC(O)C2O)C(O)C(OC2OCC(O)C(O)C2O)C1OC1OCC(O)C(OC2OCC(O)C(O)C2O)C1O (stereo partly drawn)
- GI50 (786-0): 12.2 µM (inactive)
- GI50 (HCC 2998): 2.14 µM (inactive)
- GI50 (PC-3): 11.8 µM (inactive)
- GI50 (MDA-MB-231): 7.6 µM (inactive)
- GI50 (MDA-N): 2.27 µM (inactive)
- GI50 (U-251): 18.2 µM (inactive)
- GI50 (T47D): 14.7 µM (inactive)
- GI50 (A549): 3.7 µM (inactive)
- GI50 (BT-549): 8.28 µM (inactive)
- GI50 (MOLT-4): 13.2 µM (inactive)
- GI50 (OVCAR-4): 10 µM (inactive)
- GI50 (LOX IMVI): 16.2 µM (inactive)
- GI50 (HOP-92): 6.84 µM (inactive)
- GI50 (CCRF-CEM): 22.3 µM (inactive)
- GI50 (MCF7): 7.71 µM (inactive)
- GI50 (OVCAR-3): 23.4 µM (inactive)
- GI50 (SK-OV-3): 32.2 µM (inactive)
- GI50 (UACC-62): 13.5 µM (inactive)
- GI50 (IGROV-1): 19.1 µM (inactive)
- GI50 (A498): 2.24 µM (inactive)
- GI50 (SN12C): 2.26 µM (inactive)
- GI50 (MDA-MB-435): 2.26 µM (inactive)
- GI50 (HCT-116): 8.97 µM (inactive)
- GI50 (SF-295): 7.62 µM (inactive)
- GI50 (TK-10): 13.4 µM (inactive)
- GI50 (Malme-3M): 4.46 µM (inactive)
- GI50 (HCT-15): 22.7 µM
- GI50 (SF-268): 9.51 µM (inactive)
- GI50 (HOP-62): 14 µM (inactive)
- GI50 (OVCAR-5): 8.55 µM (inactive)
- GI50 (NCI-H23): 6.37 µM (inactive)
- GI50 (NCI-H460): 69 µM (inactive)
- GI50 (Hs-578T): 21.4 µM (inactive)
- GI50 (RPMI-8226): 7.69 µM (inactive)
- GI50 (UACC-257): 3.78 µM (inactive)
- GI50 (NCI-H226): 7.05 µM (inactive)
- GI50 (SNB-75): 18.7 µM (inactive)
- GI50 (HT-29): 4.23 µM (inactive)
- GI50 (DU-145): 10.5 µM (inactive)
- GI50 (ACHN): 9.4 µM (inactive)
- GI50 (SNB-19): 16.7 µM (inactive)
- GI50 (SW-620): 15.7 µM (inactive)
- GI50 (KM12): 7.31 µM (inactive)
- GI50 (NCI/ADR-RES): 11 µM (inactive)
- GI50 (RXF 393): 16.4 µM (inactive)
- GI50 (SK-MEL-28): 2.37 µM (inactive)
- GI50 (SK-MEL-2): 8.57 µM (inactive)
- GI50 (UO-31): 2.14 µM (inactive)
- GI50 (SF-539): 67.8 µM (inactive)
- GI50 (SK-MEL-5): 9.4 µM (inactive)
- GI50 (CAKI-1): 6.67 µM (inactive)
- GI50 (OVCAR-8): 18 µM (inactive)
- GI50 (COLO 205): 2.77 µM (inactive)
- GI50 (M14): 2.42 µM (inactive)
- GI50 (K562): 6.55 µM (inactive)
- GI50 (EKVX): 4.34 µM (inactive)
- GI50 (NCI-H522): 3.19 µM (inactive)
- GI50 (HL-60): 3.94 µM (inactive)
- GI50 (SR): 5.19 µM (inactive)
